Results on 2 molecules are retold here after paper PMC9299130 (Journal of Thrombosis and Haemostasis, 2021).

For series [1], the system named is rabbit platelet-rich plasma. Particulars: 3µM; cited from earlier work.
The subject of series [2] is cynomolgus monkey plasma. Put plainly: In vitro PT in cynomolgus monkey plasma. The format is biochemical. Particulars: 40 μM, reagent not given.
Series [3] can be described thus: Pharmacokinetics in rabbits. Particulars: rabbit, in vivo.
Series [4] has as its system electrically mediated carotid arterial thrombosis. Nature of the series: Rabbit ECAT model, prevention of thrombosis. Format: in vivo.
Series [5] relates to cynomolgus monkey plasma. Nature of the series: Ecarin clotting time in cynomolgus monkey plasma. Particulars: 40 μM. The format is biochemical.
Series [6] has as its target recombinant FXIa (Oryctolagus cuniculus, UniProt G1SSQ6). Nature of the series: biochemical.
Series [7] relates to pooled human plasma. Put plainly: Thrombin clotting time in pooled human plasma. Format: biochemical. Conditions: baseline 16.6 s.
The target of series [8] is recombinant FXIa (Canis lupus familiaris, UniProt A0A8I3NYS2). Conditions: dog recombinant FXIa.
Chain of recombinant FXIa (Canis lupus familiaris, UniProt A0A8I3NYS2) (A0A8I3NYS2 389-626): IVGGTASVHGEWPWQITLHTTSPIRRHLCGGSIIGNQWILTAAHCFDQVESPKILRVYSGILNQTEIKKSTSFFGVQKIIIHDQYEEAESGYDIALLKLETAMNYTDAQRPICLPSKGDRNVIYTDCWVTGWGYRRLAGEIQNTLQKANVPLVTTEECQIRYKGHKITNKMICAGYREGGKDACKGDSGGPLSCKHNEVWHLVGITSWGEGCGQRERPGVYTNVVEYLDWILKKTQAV
A short description of series [9]: Ex vivo coagulation assays. The format is in vivo, rabbit.
Series [10] addresses recombinant FXIa (Macaca fascicularis, UniProt A0A2K5VVW4). Put plainly: biochemical.
Series [11] has as its system rabbit platelet-rich plasma. Nature of the series: In vitro platelet aggregation in hirudin-treated rabbit platelet-rich plasma. Conditions: for peak platelet aggregation response to ADP (10 µM): control 59 ± 1%; for peak platelet aggregation response to ADP (10 µM) / peak platelet aggregation response to collagen (10 µg/ml) / peak platelet aggregation response to arachidonic acid (250 µM): n = 4; for peak platelet aggregation response to collagen (10 µg/ml): control 66 ± 1%; for peak platelet aggregation response to arachidonic acid (250 µM): control 67 ± 1%. The format is cell-based.

Series [12] relates to pooled human plasma. Put plainly: Prothrombin time in pooled human plasma. Format: biochemical. Particulars: 40 μM total plasma concentration; baseline 10.3 ± 0.1 s.
Series [13] has as its target recombinant FXIa (Rattus norvegicus, UniProt F7F105).
Setting [14] is: ECAT rabbits, 120 min after start of infusion.

Chain of recombinant FXIa (Oryctolagus cuniculus, UniProt G1SSQ6) (G1SSQ6 387-624): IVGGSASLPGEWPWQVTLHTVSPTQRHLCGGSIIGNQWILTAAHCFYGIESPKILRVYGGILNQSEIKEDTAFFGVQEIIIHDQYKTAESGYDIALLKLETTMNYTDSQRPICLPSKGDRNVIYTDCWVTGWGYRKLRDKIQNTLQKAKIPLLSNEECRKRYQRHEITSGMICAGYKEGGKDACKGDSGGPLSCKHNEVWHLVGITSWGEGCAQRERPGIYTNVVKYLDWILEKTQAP
Chain of recombinant FXIa (Macaca fascicularis, UniProt A0A2K5VVW4) (A0A2K5VVW4 388-625): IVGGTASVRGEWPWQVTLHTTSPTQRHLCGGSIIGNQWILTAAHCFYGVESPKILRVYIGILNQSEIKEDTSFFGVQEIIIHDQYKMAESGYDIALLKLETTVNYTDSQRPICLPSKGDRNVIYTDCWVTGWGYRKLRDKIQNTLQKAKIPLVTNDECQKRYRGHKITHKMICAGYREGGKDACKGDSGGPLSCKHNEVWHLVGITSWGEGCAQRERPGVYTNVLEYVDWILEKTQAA
Chain of recombinant FXIa (Rattus norvegicus, UniProt F7F105) (F7F105 400-556): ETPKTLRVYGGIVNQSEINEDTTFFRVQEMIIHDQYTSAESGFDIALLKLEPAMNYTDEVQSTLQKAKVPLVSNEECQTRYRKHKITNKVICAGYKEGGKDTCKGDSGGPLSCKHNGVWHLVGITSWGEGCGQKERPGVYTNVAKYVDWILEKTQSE

`Cc1noc(C)c1S(=O)(=O)N[C@@H](CNC(=O)C[C@H]1CC(c2ccc(C(=N)N)cc2)=NO1)C(=O)O` [DMP802]: the “platelet aggregation responses to ADP, arachidonic acid, and collagen” value in [1] is reported as “almost completely inhibited”.
Usually Ki stands for a dissociation constant, usually derived from enzyme kinetics or from competition with a known ligand. In the case of `C[C@@H]1CCC[C@H](n2cnc(-c3cc(Cl)ccc3-n3cc(Cl)nn3)cc2=O)c2cc(ccn2)-c2c(cnn2C(F)F)NC1=O` [milvexian], the “PT increase over baseline” value in the series on cynomolgus monkey plasma [2] was “approximately 2 ×”. The molecule further displayed a concentration at 10 min in series [3] (male, iv, 0.8 mg/kg) of 2000 nM. For the same molecule, in [3] (male, iv, 0.8 mg/kg), the concentration at 8 h was found to be 100 nM. In series [3] (po, 20 mg/kg), the concentration at 1 h stood at 2000 nM. The concentration at 24 h in series [3] (po, 20 mg/kg) was found to be 40 nM. In [4] (0.063 + 0.04 mg/kg+mg/kg/h IV, n = 6), the “reduction of thrombus weight” value was found to be 15 ± 10%. In addition, the “20% maximal effective concentration (antithrombotic)” value in series [4] (total plasma concentration, 95% CI 23–128) turned out to be 55 nM. Moreover, the “ecarin clotting time increase over baseline” value with cynomolgus monkey plasma [5] is listed as 1.9 ×. For the same molecule, the Ki stood at 0.38 ± 0.01 nM at recombinant FXIa [6], 0.64 ± 0.03 nM on recombinant FXIa [8], 0.15 ± 0.01 nM at recombinant FXIa [10] and 490 ± 40 nM at recombinant FXIa [13]. In addition, the TT in the series on pooled human plasma [7] (20 μM total plasma concentration) turned out to be 24.8 s; in the series with pooled human plasma [7] (40 μM total plasma concentration) it was 28.4 s. In addition, in [9] (setting [14]), the “ex vivo PT” value is “did not alter”. For the same molecule, the “ex vivo TT” value in series [9] (setting [14]) is listed as “did not alter”. Besides, the “ex vivo APTT” value in [9] (ECAT rabbits, highest two doses, 120 min after start of infusion) is recorded as “elevated APTT significantly”. In addition, the “prolongation of ex vivo APTT needed to achieve 50% thrombus weight reduction” value in [9] (rabbit ECAT) came out at 1.6 fold. In addition, the “peak platelet aggregation response to ADP (10 µM)” value in series [11] (milvexian 1 μM) was found to be 58 ± 2%; in series [11] (milvexian 10 μM) it was 55 ± 2%. For the same molecule, the “peak platelet aggregation response to collagen (10 µg/ml)” value in [11] (milvexian 1 μM) worked out at 67 ± 2%; in [11] (milvexian 10 μM) it was 69 ± 1%. In addition, the entries for the “peak platelet aggregation response to arachidonic acid (250 µM)” value in series [11] (milvexian 1 μM) and in series [11] (milvexian 10 μM) were 65 ± 1% and 66 ± 2%, respectively. The “platelet aggregation to ADP, arachidonic acid, or collagen” value in [11] (result in words) is listed as “did not alter”. The molecule also displayed a PT with pooled human plasma [12] of 12.9 ± 0.4 s.
